Data set [1] relates to SKOV3 ovarian cancer cells. The data set can be described thus: Phototoxicity in SKOV3 cells after 660 nm light activation (AlamarBlue viability). Format: cell-based, Human. As to conditions: 24 h uptake, 660 nm laser or LED 50 mW/cm^2 for 5 mins (15 J/cm^2), viability 24 h after activation. Here is the method: Samples were stored at 4° C. protected from light.
All data are shown as mean±SD (where appropriate).
To test for phototoxicity, cells incubated with pyropheophorbide a analogues (0-20 μM in DMSO) had culture media replaced after 24 hours (as above) and were then exposed to a 660 nm laser (Invion) or light-emitting diode (LED) panel (Invion) with optical power density at 50 mW/cm^2 for 5 mins (total 15 J/cm^2). Laser and LED exposure induce an equivalent response in relation to phototoxicity. Following activation, cells were cultured for a further 24 hours. Media was then replaced with fresh media containing AlamarBlue, and % viable cells remaining assessed as above. Controls included cells treated with pyropheophorbide a analogues but not activated by laser light; cells without pyropheophorbide a analogue treatment but with laser light; and untreated controls. All measurements were made in quadruplicate.
To evaluate the therapeutic potential of pyropheophorbide a analogues, the therapeutic index (TI) was calculated. TI provides a quantitative measurement to describe relative drug safety, by comparing the drug concentration required for desirable effects versus the concentration resulting in undesirable off-target toxicity. TI was calculated using phototoxicity IC90 vs dark toxicity IC10.
On the technique in general: Resazurin is reduced to fluorescent resorufin, in cell work by metabolically active cells.

Data set [2] has as its system SKOV3 ovarian cancer cells.
Description: (§1) Photosensitizers (e.g. pyropheophorbide a analogue, chlorin e4 disodium (provided by Advanced Molecular Technologies, Scoresby) or Talaporfin sodium (purchased from Focus Bioscience cat #HY-16477-5MG)) were resuspended in 100% dimethylsulfoxide (DMSO) at a concentration of 5.5 mM. Samples were stored at 4° C. protected from light.
(§2) For in vitro experiments, photosensitizers (stock solution 5.5 mM in 100% DMSO) were diluted 1:100 in concentrated excipient solution (final 55 M photosensitizer in 10% w/v Kollidon-12, 42.4% w/v polysorbate 80, 0.6% w/v citric acid anhydrous, 40% w/v ethanol, 1.0% DMSO). Serial dilutions were prepared in cell culture media (Dulbecco's Modified Eagle Medium/Nutrient Mixture F-12 (DMEM/F-12)) supplemented with 10% v/v Fetal Bovine Serum, 100 U/mL penicillin, 100 μg/mL streptomycin and the same excipient solution at a constant 1:55 dilution.
(§3) Human ovarian cancer cell line SKOV3 (ATCC #HTB-77) was maintained in Dulbecco's Modified Eagle Medium/Nutrient Mixture F-12 (DMEM/F-12), supplemented with 10% v/v Fetal Bovine Serum, 100 U/mL penicillin and 100 μg/mL streptomycin. Monolayer cultures were grown in a humidified incubator at 37° C. with 5% CO2. Once cells had reached ~80% confluence, spent media was replaced with media containing photosensitizer at the required concentration and cells were incubated for the desired period of time to allow photosensitizer uptake.
(§4) Spectral absorbance and viability measurements were normalized in the range 0-100%, with a minimum of 0 and a maximum value determined from the dataset. Dose response was determined using a sigmoidal four-point non-linear regression with variable slope, and IC10 or IC90 calculated for each compound.
(§5) SKOV3 cells were seeded in 96-well black wall plates (Greiner #655090) at a cell density of 5000 cells in 100 μl culture medium per well. On reaching ~60% confluence, media was aspirated and replaced with fresh media containing the relevant pyropheophorbide a analogue from 0-100 μM in DMSO. Cells were incubated for a further 24 hours, allowing uptake of pyropheophorbide a analogues.
(§6) To test for inherent cytotoxicity (i.e. “dark toxicity”) of the pyropheophorbide a analogues, the culture media was replaced after 24 hours with fresh media containing 10% (v/v) AlamarBlue Cell Viability Reagent (ThermoFisher) and cells incubated at 37° C. for 6 hours. Untreated cells were used as a control. Fluorescence (Ex 555 nm/Em 596 nm) was measured using a Cytation 3 Cell Imaging Multi-Mode Reader (Biotek) or a CLARIOstar Plus Microplate Readear (BMG Labtech), and cytotoxicity assessed according to the % viable cells remaining. All measurements were made in quadruplicate.
(§7) The phototoxicity and inherent cytotoxicity (i.e. “dark toxicity”) of pyropheophorbide a analogues were assessed as previously using SKOV3 ovarian cancer cells. For comparative purposes, pyropheophorbide a analogues were compared against chlorin e4 disodium and Talaporfin sodium, a clinically approved photosensitizer used in the photodynamic treatment of lung cancers. Phototoxicity IC90 values and dark toxicity IC10 values were calculated using a log[inhibitor]-vs normalized response dose curve with variable slope, using the formula Y=100/(1+(IC90/X)^HillSlope (phototoxicity IC90)) or Y=100/(1+(IC10/X)^HillSlope (dark toxicity IC10)).
Data set [3] deals with SKOV3 ovarian cancer cells. As to the kind of experiment: Inherent cytotoxicity (dark toxicity) in SKOV3 cells without light (AlamarBlue viability). The note with it: 24 h incubation, no light activation.
Description: as §1, §2, §3, §4, §5, §6, §7
[4] abbreviates: Homo sapiens, SK-OV-3, light or radiation study.

These results are taken from US20260248828A1, “Pyropheophorbide Analogues for Therapy and Diagnosis” (RMW Cho Group Limited, priority 2023, published 2026).

Read-outs that look alike come from different tables or passages of the source.

As to `CCC1=C(C)c2cc3[nH]c(cc4nc(c5c6[nH]c(cc1n2)c(C)c6C(=O)C5)[C@@H](CCC(=O)OC)[C@@H]4C)c(C)c3COC(=O)CCCC[P+](c1ccccc1)(c1ccccc1)c1ccccc1` [Compound 2, pyropheophorbide a methyl ester 9-(oxopentyl)triphenylphosphonium bromide], in data set [1] (setting [4]), the 90% effect concentration (IC90) (usually the point of the concentration-response curve where the effect stands at 90%) came to 0.002 µM. For the same compound, the “Dark toxicity μM (IC10)” value in data set [2] (human, 24 h) came out at 0.415 µM.
Consider `CCC1=C(C)c2cc3[nH]c(cc4nc(c5c6[nH]c(cc1n2)c(C)c6C(=O)C5)[C@@H](CCC(=O)OC)[C@@H]4C)c(C)c3CNCCC[P+](c1ccccc1)(c1ccccc1)c1ccccc1` [Compound 4, pyropheophorbide a 9-(N-3-triphenylphosphoniumpropyl bromide)aminomethyl methyl ester], for which it took 0.048 µM to reach the 90% level in data set [1] (setting [4]) (IC90). In addition, the “Dark toxicity μM (IC10)” value in data set [3] was determined as 50.90 µM.
For `C=Cc1c(C)c2cc3nc(c(CC(=O)N[C@@H](CC(=O)O)C(=O)O)c4[nH]c(cc5nc(cc1[nH]2)C(C)=C5CC)c(C)c4C(=O)O)[C@@H](CCC(=O)O)[C@@H]3C` [Talaporfin sodium], the “Dark toxicity μM (IC10)” value in data set [2] (human, 24 h) turned out to be 11.10 µM.
In data set [1], `C=Cc1c(C)c2cc3nc(c(C)c4[nH]c(cc5nc(cc1[nH]2)C(C)=C5CC)c(C)c4C(=O)O)[C@@H](CCC(=O)O)[C@@H]3C` [Chlorin e4 disodium, chlorin e4 disodium, reference compound] yielded an IC90 of 21.3 µM. The “Dark toxicity μM (IC10)” value in data set [2] was 40.23 µM.
As to `CCC1=C(C)c2cc3[nH]c(cc4nc(c5c6[nH]c(cc1n2)c(C)c6C(=O)C5)[C@@H](CCC(=O)OC)[C@@H]4C)c(C)c3COC(=O)NCCC[P+](c1ccccc1)(c1ccccc1)c1ccccc1` [Compound 1, pyropheophorbide a methyl ester 9-(N-(3-triphenylphosphoniumpropyl)bromide)carbamate], the concentration for an effect of 90% (IC90) in data set [1] (setting [4]) amounted to 0.038 µM. Moreover, in data set [3], the “Dark toxicity μM (IC10)” value was 3.088 µM.
In data set [1] (setting [4]), `CCC1=C(C)c2cc3[nH]c(cc4nc(c5c6[nH]c(cc1n2)c(C)c6C(=O)C5)[C@@H](CCC(=O)OC)[C@@H]4C)c(C)c3CN(C)C(=O)CCCC[P+](c1ccccc1)(c1ccccc1)c1ccccc1` [Compound 3, pyropheophorbide a 9-N-(methyl-5-triphenylphosphonium bromidepentanamide) methyl ester] gave an IC90 of 0.012 µM. For the same compound, the “Dark toxicity μM (IC10)” value in data set [2] (human, 24 h) is 24.00 µM.
Consider `CCOC(=O)N(CCC[P+](c1ccccc1)(c1ccccc1)c1ccccc1)Cc1c(C)c2cc3nc(c4c5[nH]c(cc6nc(cc1[nH]2)C(C)=C6CC)c(C)c5C(=O)C4)[C@@H](CCC(=O)OC)[C@@H]3C` [Compound 5, pyropheophorbide a 9-(N-3-triphenylphosphoniumpropyl bromide ethylcarbamate)aminomethyl methyl ester], for which the IC90 in data set [1] (setting [4]) was 0.006 µM. Besides, the “Dark toxicity μM (IC10)” value in data set [3] turned out to be 48.97 µM.
Take `CCC1=C(C)c2cc3[nH]c(cc4nc(c5c6[nH]c(cc1n2)c(C)c6C(=O)C5)[C@@H](CCC(=O)OC)[C@@H]4C)c(C)c3CO` [Comparative Compound 1, pyropheophorbide a 9-hydroxymethyl methyl ester, reference compound]: the IC90 in data set [1] (setting [4]) is 0.458 µM. The “Dark toxicity μM (IC10)” value in data set [2] (human, 24 h) was determined as 15.500 µM.
